# According to patent US20260200890A1, “ADAR1 INHIBITORS AND METHODS OF USING THE SAME” (AVAMMUNE THERAPEUTICS INC., priority 2022, published 2026):
# Biological target: T1, ADAR1 (Homo sapiens, UniProt P55265)
# T1 construct: endogenous in cells; host or cells: p110 KO A549 dual cells
# T1 sequence (P55265 1-1226): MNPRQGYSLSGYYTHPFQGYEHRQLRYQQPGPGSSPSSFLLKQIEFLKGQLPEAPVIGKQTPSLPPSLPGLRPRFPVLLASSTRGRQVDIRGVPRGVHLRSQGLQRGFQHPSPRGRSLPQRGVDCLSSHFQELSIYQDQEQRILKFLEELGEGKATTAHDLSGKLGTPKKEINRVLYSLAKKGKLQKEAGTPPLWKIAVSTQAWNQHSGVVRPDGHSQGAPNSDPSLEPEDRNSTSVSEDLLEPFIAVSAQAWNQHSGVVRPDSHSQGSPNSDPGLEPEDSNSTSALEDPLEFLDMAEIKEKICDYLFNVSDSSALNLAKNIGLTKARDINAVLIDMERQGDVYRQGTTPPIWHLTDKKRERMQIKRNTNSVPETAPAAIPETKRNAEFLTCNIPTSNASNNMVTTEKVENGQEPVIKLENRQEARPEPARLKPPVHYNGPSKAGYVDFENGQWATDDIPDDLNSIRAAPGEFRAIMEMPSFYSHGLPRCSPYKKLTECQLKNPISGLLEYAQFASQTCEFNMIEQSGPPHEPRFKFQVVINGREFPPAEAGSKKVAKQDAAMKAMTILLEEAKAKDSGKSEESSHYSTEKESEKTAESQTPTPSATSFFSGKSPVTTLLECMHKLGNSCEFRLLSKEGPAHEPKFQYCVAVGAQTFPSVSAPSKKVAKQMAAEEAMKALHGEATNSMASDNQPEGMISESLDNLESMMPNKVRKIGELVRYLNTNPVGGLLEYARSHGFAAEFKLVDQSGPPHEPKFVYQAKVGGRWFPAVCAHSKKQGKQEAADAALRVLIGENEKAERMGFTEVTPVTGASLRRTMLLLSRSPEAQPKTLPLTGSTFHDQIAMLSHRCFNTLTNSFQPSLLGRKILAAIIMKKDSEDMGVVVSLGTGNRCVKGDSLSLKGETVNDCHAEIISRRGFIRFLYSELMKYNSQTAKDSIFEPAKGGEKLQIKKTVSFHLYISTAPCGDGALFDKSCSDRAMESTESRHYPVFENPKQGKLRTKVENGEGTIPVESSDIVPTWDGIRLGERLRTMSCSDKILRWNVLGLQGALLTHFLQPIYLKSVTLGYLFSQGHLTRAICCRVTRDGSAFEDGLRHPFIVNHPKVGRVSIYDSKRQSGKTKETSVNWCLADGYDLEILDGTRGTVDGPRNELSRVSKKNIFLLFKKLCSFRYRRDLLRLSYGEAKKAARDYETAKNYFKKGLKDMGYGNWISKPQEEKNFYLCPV
# Test: ADAR1 Inhibition Assay (IFN fold-induction, Quanti-Luc luminescence, p110 KO A549 dual cells)
# Assay type: cell-based
# Settings: IFN fold-induction vs DMSO, 24 and 48 h
# Summary of the method: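 p110 KO A549 dual cells (20,000/well) in supplemented DMEM, treated next day with compound at 1% final DMSO for 24 and 48 h at 37 °C, 5% CO2. Supernatant luminescence read with Quanti-Luc; IFN fold-induction = sample RLU/mean DMSO RLU, used for EC50.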
row,Compound,EC50 [µM]
1,CCOC(=O)c1cc(-c2ccccc2)sc1NC(=O)Cn1cc(CSc2cccc(NS(C)(=O)=O)c2)nn1 [Compound 360],> 100
2,CON(C)C(=O)c1cc(-c2ccccc2)sc1NC(=O)COC(=O)c1cccc(NS(C)(=O)=O)c1 [Compound 217],> 100
3,CCOC(=O)c1nc(-c2ccccc2)sc1NC(=O)C1CCN(C(=O)c2cccc(NS(C)(=O)=O)c2)C1 (stereo not drawn) [Compound 206],> 100
4,CCOC(=O)c1sc(-c2ccccc2)cc1NC(=O)COC(=O)c1cccc(S(N)(=O)=O)c1 [Compound 423],> 100
5,CCOC(=O)c1cc(-c2ccccc2)sc1NC(=O)COC(=O)c1cccc(N(C)C)c1 [Compound 199],> 100
6,CCOC(=O)c1nc(-c2ccccc2)oc1NC(=O)COC(=O)c1cccc(NS(C)(=O)=O)c1 [Compound 145],> 100
7,CCOC(=O)c1c(NC(=O)COC(=O)c2cccc(NS(C)(=O)=O)c2)sc2c1CCC2 [Compound 86],> 100
8,CCCCS(=O)(=O)Nc1cccc(C(=O)OCC(=O)Nc2sc(-c3ccccc3)cc2C(=O)OCC)c1 [Compound 133],> 100
9,CCOC(=O)c1cc(NC(=O)COC(=O)c2cccc(NS(C)(=O)=O)c2)nn1-c1ccccc1 [Compound 347],> 100
10,CCOc1nc(NC(=O)COC(=O)c2cccc(NS(C)(=O)=O)c2)ncc1-c1ccccc1 [Compound 235],> 100
11,CCOC(=O)c1cc(-c2ccccc2)[nH]c1NC(=O)COC(=O)c1cccc(NS(C)(=O)=O)c1 [Compound 352],> 100
12,CCOC(=O)c1cc(-c2ccccc2)sc1NC(=O)COC(=O)c1cccc(NS(=O)(=O)N2CCCCC2)c1 [Compound 140],> 100
13,CCOC(=O)c1sc(-c2ccccc2)cc1NC(=O)COC(=O)c1cccc(P(=O)(OCC)OCC)c1 [Compound 370],> 100
14,CCOC(=O)c1cc(-c2ccccc2)sc1NC(=O)COC(=O)c1ccc2cc(NS(C)(=O)=O)ccc2c1 [Compound 378],> 100
15,CCOC(=O)c1cc(-c2ccc(F)cc2)sc1NC(=O)COC(=O)c1cccc(NS(C)(=O)=O)c1 [Compound 108],≤ 25
16,CCOC(=O)c1cc(-c2ccccc2)sc1NC(=O)CNC(=O)Cc1cccc(P(=O)(OCC)OCC)c1 [Compound 348],> 100
17,CCOC(=O)c1cc(-c2ccccc2)sc1NC(=O)CNC(=O)Cc1cccc(S(C)(=N)=O)c1 (stereo not drawn) [Compound 338],> 100
18,CCOC(=O)c1cc(-c2ccccc2)sc1NC(=O)COC(=O)c1cccc(OS(C)(=O)=O)c1 [Compound 82],> 100

row,Compound,EC50 [µM]
1,CCOC(=O)c1cc(-c2ccccc2C#N)sc1NC(=O)COC(=O)c1cccc(NS(C)(=O)=O)c1 [Compound 197],> 100
2,CCOC(=O)c1cc(-c2ccccc2)sc1NC(=O)COC(=O)c1ccc(Cl)c(S(N)(=O)=O)c1 [Compound 74],> 100
3,CCOC(=O)c1cc(-c2ccccc2)sc1NC(=O)COC(=O)c1cc(NS(C)(=O)=O)c(F)cc1F [Compound 128],> 100
4,CS(=O)(=O)Nc1cccc(C(=O)OCC(=O)N2CCN(c3ccccc3)C2=S)c1 [Compound 221],> 100
5,CCOC(=O)c1cc(-c2ccccc2)sc1NC(=O)COC(C)c1cccc(NS(C)(=O)=O)c1 (stereo not drawn) [Compound 240],> 100
6,CS(=O)(=O)Nc1cccc(C(=O)OCC(=O)Nc2nnc(-c3ccccc3)o2)c1 [Compound 185],> 100
7,CCOC(=O)c1cc(-c2ccccc2)sc1NC(=O)CNS(=O)(=O)c1ccc(C)cc1 [Compound 27],> 100
8,CCOC(=O)c1cc(-c2ccccc2)sc1NC(=O)CNS(=O)(=O)c1cccc(CO)c1 [Compound 61],> 100
9,CCOC(=O)c1cc(-c2ccccc2)sc1NC(=O)COC(=O)c1cc(S(N)(=O)=O)ccc1F [Compound 37],> 100
10,CCOC(=O)c1cc(-c2ccccc2)sc1NC(=O)COC(=O)c1cccc(C(=O)O)c1 [Compound 96],> 100
11,CCOC(=O)c1cc(-c2ccccc2)sc1NC(=O)c1cc(-c2cccc(NS(C)(=O)=O)c2)ncn1 [Compound 261],> 100
12,CCOC(=O)c1cc(-c2ccc3c(c2)OCCO3)sc1NC(=O)COC(=O)c1cccc(NS(C)(=O)=O)c1 [Compound 317],> 100
13,CCOC(=O)c1cc(-c2ccccc2)sc1NC(=O)CNS(=O)(=O)c1cccc(NS(C)(=O)=O)c1 [Compound 232],> 100
14,CCOC(=O)c1cc(-c2ccccc2)sc1NC(=O)CNC(=O)c1ccccc1 [Compound 6],> 100
15,NS(=O)(=O)c1cccc(NC(=O)c2csc(-c3ccccc3)c2)c1 [Compound 25],> 100
16,CCOC(=O)c1cc(-c2ccccc2)sc1NC(=O)CN(c1cccc(CO)c1)S(C)(=O)=O [Compound 105],> 100
17,CCOC(=O)c1cc(-c2ccccc2)sc1NC(=O)C1CCCN1C(=O)c1cccc(P(=O)(O)O)c1 (stereo not drawn) [Compound 404],50 to 100

# Next, values leading:
row,EC50 [µM],Compound
1,> 100,CCOC(=O)c1cc(-c2cc[nH]n2)sc1NC(=O)COC(=O)c1cccc(NS(C)(=O)=O)c1 [Compound 159]
2,> 100,CCOC(=O)c1cc(-c2ccccc2)sc1NC(=O)COC(=O)c1cccc(S(=O)(=O)NC(C)(C)C)c1 [Compound 379]
3,> 100,CCOC(=O)c1cc(-c2ccccc2)sc1NC(=O)CS(=O)(=O)c1cccc(NS(C)(=O)=O)c1 [Compound 297]
4,> 100,CCOC(=O)c1cc(-c2ccccc2)sc1NC(=O)c1cccc(-c2cccc(NS(C)(=O)=O)c2)c1 [Compound 252]
5,> 100,CCOC(=O)c1c(NC(=O)COC(=O)c2cccc(C#N)c2)sc2c1CCCC2 [Compound 91]
6,> 100,NS(=O)(=O)c1cccc(NC(=O)CNC(=O)c2csc(-c3cccnc3)n2)c1 [Compound 20]
7,> 100,CCOC(=O)c1cc(-c2ccccc2)sc1NC(=O)COCc1cccc(N(S(C)(=O)=O)S(C)(=O)=O)c1 [Compound 179]
8,> 100,CCOC(=O)c1cc(-c2ccccc2)sc1NC(=O)COC1CCN(S(C)(=O)=O)CC1 [Compound 160]
9,> 100,CCOC(=O)c1cc(-c2ccccc2)sc1NC(=O)COC(=O)c1ccc(S(N)(=O)=O)cc1 [Compound 68]
10,> 100,CCOC(=O)c1cc(-c2ccccc2)sc1NC(=O)CN1CCN(S(C)(=O)=O)CC1 [Compound 143]
11,> 100,CCOC(=O)c1cc(-c2ccccc2)sc1NC(=O)COC1CCN(C(=O)c2cccc(NS(C)(=O)=O)c2)CC1 [Compound 208]
12,> 100,CCOC(=O)c1cc(-c2ccccc2)sc1NC(=O)COC(=O)c1cc(S(N)(=O)=O)ccc1C [Compound 76]
13,> 100,CS(=O)(=O)Nc1cccc(NC(=O)CSc2nc(N)nc3nc[nH]c23)c1 [Compound 194]
14,> 100,CCOC(=O)c1cc(-c2ccccc2)sc1NC(=O)CNC(=O)c1cccc(CNS(C)(=O)=O)c1 [Compound 342]
15,> 100,CCOC(=O)c1cc(-c2ccccc2)sc1NC(=O)COC(=O)N1CCN(S(C)(=O)=O)CC1 [Compound 178]
16,> 100,CCOC(=O)c1cc(-c2ccccc2)sc1NC(=O)c1ccc(-c2cccc(NS(C)(=O)=O)c2)o1 [Compound 268]
17,> 100,CCOC(=O)c1c(NC(=O)COC(=O)c2cccc(S(N)(=O)=O)c2)sc2c1CCC2 [Compound 77]
18,> 100,CCOC(=O)c1cc(-c2ccccc2)sc1NC(=O)CN [Compound 12]
19,> 100,CCOC(=O)c1cc(-c2ccccc2)sc1NC(=O)CNCCS(N)(=O)=O [Compound 14]
20,> 100,CCOC(=O)c1cc(-c2ccccc2)sc1NC(=O)COC(=O)c1nonc1NS(C)(=O)=O [Compound 374]
21,> 100,CCOC(=O)c1cc(-c2ccccc2)sc1NC(=O)CNC(=O)c1ccc2ccn(S(C)(=O)=O)c2c1 [Compound 339]
22,> 100,CCOC(=O)c1cnc(NC(=O)COC(=O)c2cccc(NS(C)(=O)=O)c2)nc1-c1ccccc1 [Compound 298]
23,> 100,CCOC(=O)c1c(NC(=O)COC(=O)c2cccc(NS(C)(=O)=O)c2)sc(-c2ccccc2)c1C [Compound 190]
24,> 100,CCOC(=O)c1cc(-c2ccccc2)sc1NC(=O)C1CCCN(C(=O)c2cccc(NS(C)(=O)=O)c2)C1 (stereo not drawn) [Compound 152]
25,> 100,CCOC(=O)c1cc(-c2ccccc2)sc1NC(=O)CNc1cccc(S(=O)(=O)N(C)C)c1 [Compound 15]
